Experiments:
[1] = tested on: A2780cis xenografts; experiment: In vivo inhibition of tumor growth in nude mice bearing A2780cis xenograft
Description: To further investigate the ability of 1 to treat drug-resistant tumors that should be of great interest in clinical application, in vivo antitumor experiments on nude mice bearing cisplatin-resistant A2780cis xenografts with 1 were conducted. […]
every 2 days for 24 days. The control group received equal volume of PBS only.
During the treatment period, the tumor volume and body weight of the nude mice were measured per two days. The tumor volume was calculated by the equation:
Volume (mm3) = l×w2/2, where l and w were the length and width of the tumor. At the end of the treatment, the nude mice were sacrificed and the tumor weight was […]
H&E staining and immunohistochemical (IHC) analysis of mice tissues. […] The expression of p53, Ki67, VEGFR2 and TUNEL was determined by IHC methods as reported previously. […]
animal study. […] During the treatment period, the tumor volume and body weight of the nude mice were measured […]
once every 2–3 days. The tumor volume was calculated by the equation: Volume (mm3) = l×w2/2, where l and w were the length and width of the tumor. At the end of the treatment, the nude mice were sacrificed and the tumor weight was measured. […]
of apoptosis of HCT116 cells was investigated by CellEvent Caspase-3/7 Green ReadyProbes Reagent (30 µL), similar to the procedure of the experiments on gold(III) […]

[2] = tested on: HCT116 cells; experiment: Flow cytometric analysis of apoptosis with propidium iodide co-staining (Fig. S14, S15); format: cell-based, human; settings: HCT116, 2 μM
Description: with gold(III) complexes and FITC-annexin V staining. HCT116 (1×10 5 cells) and […]
annexin-binding buffer solution. The cells were then incubated with FITC-annexin V […]
at room temperature in dark for 15 min. The solution was then removed, and the cells were washed with annexin-binding buffer solution. Fluorescence images were then […]
in ice and analyzed by flow cytometry immediately. […]
staining and flow cytometry. […]
atmosphere of 5% CO2. After reaching 80% confluency, the culture medium was […]
of 5% CO2 for 45 min. The solution was then removed. The stained NCM460 cells […]
the procedure described above. […]
right fore of BALB/c nude mice. When the tumor volume reached 70 mm3 after […]
propidium iodide staining. (b) Flow cytometric analysis of NCM460 […]
annexin V and propidium iodide staining. (c) Flow cytometric analysis […]
annexin V and propidium iodide staining.

[Au(TPP–COO–PEG5000–OCH3)]Cl [Compound 1]
reduction of tumor volume ([1]; 4 mg kg^–1, intravenous injections every 2–3 days for 13 days, n = 5): Over 52% | mouse death / body weight ([1]; A2780cis xenograft nude mice, 4 mg kg^–1 i.v., 13 days): no mouse death or significant loss in body weight | apoptotic cells (Q4 region, corrected) ([2]; 24 h): 35.83% | late apoptotic events (Q2 region, corrected) ([2]; 24 h): 1.96% | apoptotic cells (Q4 region, corrected) ([2]; 36 h): 43.83% | late apoptotic events (Q2 region, corrected) ([2]; 36 h): 10.6%
